Reference: the NIST ThermoML archive (doi:10.1021/je049814b)

Details: Liquid, Coaxial cylinder method

O [water]
thermal conductivity [W/m/K]
Details | 290.6 K | 329.7 K | 367.1 K | 395.1 K | 440.7 K | 484.2 K | 514.2 K | 549.8 K | 575.4 K
1000 kPa | 0.592 | 0.649 | 0.679 | 0.683 | – | – | – | – | –
10000 kPa | 0.602 | 0.655 | 0.684 | 0.692 | 0.683 | 0.66 | 0.638 | 0.587 | 0.54
40000 kPa | 0.613 | 0.665 | 0.697 | 0.709 | 0.703 | 0.684 | 0.662 | 0.628 | 0.594
